The text below walks through data of US20240228458A1, “PYRIMIDINE DERIVATIVE HAVING PROTEIN KINASE INHIBITORY ACTIVITY, AND THERAPEUTIC PHARMACEUTICAL COMPOSITION COMPRISING SAME” (THERAPEX CO., LTD., priority 2021, published 2024).

Each structure is given as a SMILES string. Some results are limits rather than exact numbers.

Common to all, as to assay type: cell-based
Assay [1] deals with Ba/F3 cells expressing del19/T790M/C797S (EGFR-DTC). Put plainly: Growth inhibition (GI50) of Ba/F3 cells expressing del19/T790M/C797S (EGFR-DTC), Celltiter glo. Particulars: Mus musculus, BaF3, 72 h. An outline of the steps: (§1)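 Ba/F3 cells carrying the given EGFR variant were seeded at 100,000 cells/ml and, 4 h later, treated with 10-point, 4-fold serial dilutions prepared from a 2 mM stock (0.5% DMSO final). After 72 h at 37 °C and 5% CO2, viable cells were quantified by CellTiter-Glo luminescence to derive GI50.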
On the technique in general: Cellular ATP, detected with luciferase, serves as a proxy for viable cell number.

The test system of assay [2] is Ba/F3 cells expressing L858R/T790M/C797S (EGFR-LTC). The experiment in a line: Growth inhibition (GI50) of Ba/F3 cells expressing L858R/T790M/C797S (EGFR-LTC), Celltiter glo. To be noted: Mus musculus, BaF3, 72 h. The method, boiled down: as §1
The subject of assay [3] is parental Ba/F3 cell line. The experiment in a line: Growth inhibition (GI50) of the parental Ba/F3 cell line (not introduced with EGFR variants), Celltiter glo. Particulars: Mus musculus, BaF3, 72 h, parental Ba/F3 cells. The method, boiled down:
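Viable cell count by CellTiter-Glo after 72 h at 37 °C gave GI50 values (μM, 50% growth inhibition). Cells lacking EGFR variants were seeded at 100,000 cells/ml and dosed 4 h later with 4-fold serial dilutions from a 2 mM stock, 0.5% DMSO.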

Assay [4] deals with Ba/F3 cells expressing EGFR-wt. The experiment in a line: Growth inhibition (GI50) of Ba/F3 cells expressing EGFR-wt, Celltiter glo. To be noted: Mus musculus, BaF3, 72 h. The method, boiled down: as §1

On to `COc1nc(N2CCNCC2)ccc1Nc1ncc(Cl)c(Nc2ccc3nccnc3c2P(C)(C)=O)n1` [Example 128, (6-((5-chloro-2-((2-methoxy-6-(piperazin-1-yl)pyridin-3-yl)amino)pyrimidin-4-yl)amino)quinoxalin-5-yl)dimethylphosphine oxide], for which the GI50 (in general, the concentration that inhibits growth by half) in assay [1] fell in the range of 500 to 2000 nM; in assay [2] it was 500 to 2000 nM; in assay [3], 2000 to 10000 nM; in assay [4] it was 2000 to 10000 nM.
Take `COc1nc(N2CCS(=O)(=O)CC2)ccc1Nc1ncc(Cl)c(Nc2ccc3nccnc3c2P(C)(C)=O)n1` [Example 129, 4-(5-((5-chloro-4-((5-(dimethylphosphoryl)quinoxalin-6-yl)amino)pyrimidin-2-yl)amino)-6-methoxypyridin-2-yl)thiomorpholine 1,1-dioxide]: the GI50 is 2000 to 10000 nM in assay [1], 2000 to 10000 nM in assay [2], greater than 10000 nM in assay [3] and 2000 to 10000 nM in assay [4].
In the case of `COc1nc(N2CCC(N3CCN(C)CC3)CC2)ccc1Nc1ncc(Cl)c(Nc2ccc3nccnc3c2NS(C)(=O)=O)n1` [Example 132, N-(6-((5-chloro-2-((2-methoxy-6-(4-(4-methylpiperazin-1-yl)piperidin-1-yl)pyridin-3-yl)amino)pyrimidin-4-yl)amino)quinoxalin-5-yl)methanesulfonamide], the GI50 in assay [1] fell in the range of 100 to 500 nM; in assay [2], 100 to 500 nM; in assay [3], 500 to 2000 nM; in assay [4] it was 500 to 2000 nM.
For the compound `COc1cc(N2CCC(N3CCN(C)CC3)CC2)ccc1Nc1ncc(Cl)c(Nc2ccc3nccnc3c2NS(C)(=O)=O)n1` [Example 133, N-(6-((5-chloro-2-((2-methoxy-4-(4-(4-methylpiperazin-1-yl)piperidin-1-yl)phenyl)amino)pyrimidin-4-yl)amino)quinoxalin-5-yl)methanesulfonamide], the GI50 in assay [1] was 100 to 500 nM; in assay [2] it was 100 to 500 nM; in assay [3], 500 to 2000 nM; in assay [4] it was 500 to 2000 nM.
Regarding `COc1nc(N2C[C@@H](C)N(C)[C@@H](C)C2)ccc1Nc1ncc(Cl)c(Nc2ccc3nccnc3c2NS(C)(=O)=O)n1` [Example 135, N-(6-((5-chloro-2-((2-methoxy-6-((3S,5R)-3,4,5-trimethylpiperazin-1-yl)pyridin-3-yl)amino)pyrimidin-4-yl)amino)quinoxalin-5-yl)methanesulfonamide], the GI50 in assay [1] lay in the range of 100 to 500 nM; in assay [2] it was 100 to 500 nM; in assay [3], 500 to 2000 nM; in assay [4], 500 to 2000 nM.
Regarding `COc1cc(N2CCC(N3CCN(C)CC3)CC2)c(Cl)cc1Nc1ncc(Cl)c(Nc2ccc3nccnc3c2NS(C)(=O)=O)n1` [Example 136, N-(6-((5-chloro-2-((5-chloro-2-methoxy-4-(4-(4-methylpiperazin-1-yl)piperidin-1-yl)phenyl)amino)pyrimidin-4-yl)amino)quinoxalin-5-yl)methanesulfonamide], the GI50 was in the range of 100 to 500 nM in assay [1], 100 to 500 nM in assay [2], 500 to 2000 nM in assay [3] and 500 to 2000 nM in assay [4].
`COc1cc(N2CCC(N3CCN(C)CC3)CC2)c(Cl)cc1Nc1ncc(Cl)c(Nc2cc(C(F)(F)F)ccc2NS(C)(=O)=O)n1` [Example 137, N-(2-((5-chloro-2-((5-chloro-2-methoxy-4-(4-(4-methylpiperazin-1-yl)piperidin-1-yl)phenyl)amino)pyrimidin-4-yl)amino)-4-(trifluoromethyl)phenyl)methanesulfonamide]: the GI50 in assay [1] fell in the range of 100 to 500 nM; in assay [2], 100 to 500 nM; in assay [3] it was 2000 to 10000 nM; in assay [4], 500 to 2000 nM.
In the case of `COc1cc(N2CCC(N3CCN(C)CC3)CC2)c(C)cc1Nc1ncc(Cl)c(Nc2cc(C(F)(F)F)ccc2NS(C)(=O)=O)n1` [Example 138, N-(2-((5-chloro-2-((2-methoxy-5-methyl-4-(4-(4-methylpiperazin-1-yl)piperidin-1-yl)phenyl)amino)pyrimidin-4-yl)amino)-4-(trifluoromethyl)phenyl)methanesulfonamide], the GI50 in assay [1] lay in the range of 100 to 500 nM; in assay [2] it was 100 to 500 nM; in assay [3], 500 to 2000 nM; in assay [4], 2000 to 10000 nM.
For `COc1cc(N2CCC(N3CCN(C4CC4)CC3)CC2)c(C)cc1Nc1ncc(Cl)c(Nc2cc(C(F)(F)F)ccc2NS(C)(=O)=O)n1` [Example 139, N-(2-((5-chloro-2-((4-(4-(4-cyclopropylpiperazin-1-yl)piperidin-1-yl)-2-methoxy-5-methylphenyl)amino)pyrimidin-4-yl)amino)-4-(trifluoromethyl)phenyl)methanesulfonamide], the GI50 in assay [1] lay in the range of 500 to 2000 nM; in assay [2] it was 500 to 2000 nM; in assay [3], 500 to 2000 nM; in assay [4] it was 2000 to 10000 nM.
Take `COc1cc(N2CCC(N3CCN(C)CC3)CC2)c(C)cc1Nc1nc(N)c(Cl)c(Nc2ccc(F)cc2NS(C)(=O)=O)n1` [Example 141, N-(2-((6-amino-5-chloro-2-((2-methoxy-5-methyl-4-(4-(4-methylpiperazin-1-yl)piperidin-1-yl)phenyl)amino)pyrimidin-4-yl)amino)-5-fluorophenyl)methanesulfonamide]: the concentration for 50% growth inhibition (GI50) in assay [1] is 500 to 2000 nM; in assay [2], 500 to 2000 nM; in assay [3], greater than 10000 nM; in assay [4], 500 to 2000 nM.
In the case of `COc1nc(C2CCCN(C)CC2)ccc1Nc1ncc(Br)c(Nc2ccc(F)cc2NS(C)(=O)=O)n1` (stereo not shown) [Example 145, N-(2-((5-bromo-2-((2-methoxy-6-(1-methylazepan-4-yl)pyridin-3-yl)amino)pyrimidin-4-yl)amino)-5-fluorophenyl)methanesulfonamide], the GI50 lay within 100 to 500 nM in assay [1], 100 to 500 nM in assay [2], 2000 to 10000 nM in assay [3] and 2000 to 10000 nM in assay [4].
With `COc1cc(N2CCC(N3CCN(C)CC3)CC2)c(F)cc1Nc1ncc(Br)c(Nc2ccc(F)cc2NS(C)(=O)=O)n1` [Example 146, N-(2-((5-bromo-2-((5-fluoro-2-methoxy-4-(4-(4-methylpiperazin-1-yl)piperidin-1-yl)phenyl)amino)pyrimidin-4-yl)amino)-5-fluorophenyl)methanesulfonamide], the GI50 in assay [1] lay in the range of 100 to 500 nM; in assay [2], 100 to 500 nM; in assay [3], 2000 to 10000 nM; in assay [4], 500 to 2000 nM.
Turning to `COc1cc(N2CCC(N3CCN(C)CC3)CC2)c(C)cc1Nc1ncc(Cl)c(Nc2cc(Cl)ccc2-c2c[nH]nn2)n1` [Example 166], the GI50 in assay [1] lay within 1 to 25 nM; in assay [2] it was 1 to 25 nM; in assay [3] it was 500 to 2000 nM; in assay [4], 100 to 500 nM.
In the case of `Cc1cc(Nc2ncc(Cl)c(Nc3cc(Cl)ccc3-c3cnn[nH]3)n2)c(Cl)cc1N1CCC(N2CCN(C)CC2)CC1` [Example 185], the GI50 in assay [1] was in the range of 500 to 2000 nM; in assay [2], 25 to 100 nM; in assay [3], 500 to 2000 nM; in assay [4], 500 to 2000 nM.
Take `COc1cc(N2CCC(N3CCN(C)CC3)CC2)c(Cl)cc1Nc1ncc(Cl)c(Nc2cc(Cl)ccc2-c2cnn[nH]2)n1` [Example 186]: the GI50 lay within 25 to 100 nM in assay [1], 25 to 100 nM in assay [2], 100 to 500 nM in assay [3] and 25 to 100 nM in assay [4].
`COc1cc(N2CCC(N3CCN(C)CC3)CC2)c(C)cc1Nc1ncc(Br)c(Nc2cc(Cl)ccc2-c2cnn[nH]2)n1` [Example 187]: the GI50 in assay [1] lay in the range of 25 to 100 nM; in assay [2], 25 to 100 nM; in assay [3] it was 500 to 2000 nM; in assay [4], 100 to 500 nM.
